# Measurements as given in patent US20050234043A1, “ACE inhibitor-vasopressin antagonist combinations” (priority 2000, published 2005).
# Structures can show the parent of a compound that is named as a salt.
# What was measured:
# [1] = Oral pharmacokinetics in rat; format: in vivo
# Text: (§1) There is a marked food effect with absorption reduced by >50% in dogs after a meal.
# [2] = system: AVP-induced dermal vasoconstriction; assay: AVP-induced dermal vasoconstriction in Phase 1 subjects; format: in vivo, human; conditions: 50 mg IV
# [3] = system: patients with NYHA Class III/IV heart failure; assay: Double-blind placebo-controlled IV dose-response study of cardiopulmonary hemodynamics in NYHA Class III/IV heart failure patients on ACE inhibitor background; format: in vivo, human; conditions: CHF patients
# Protocol: These patients have advanced CHF/LV dysfunction. Patients must be receiving background therapy of diuretics, ACE inhibitors, and optionally digoxin and/or β-blocker; patients will be stratified as to whether they are receiving concomitant β-blocker treatment. […] Patients should take their daily dose of concomitant heart failure medications within 2 hours of catheter insertion. No additional doses of background heart failure medications should be administered during the study treatment phase. After insertion of a balloon-floatation pulmonary artery catheter, serial measurements will be obtained over an 8- to 18-hour baseline and stabilization period. […] The mean baseline PCWP in this study group was 24.2 mmHg. The mean baseline CI was 2.1 L/min/m^2. […] Fluid intake will be restricted to 250 mL every 2 hours (except at time of IV infusion) from time of insertion of Swan-Ganz catheter and throughout the treatment period. […] Serum electrolytes, BUN, creatinine, and serum osmolality will be measured at baseline and 4 and 12 hours posttreatment. Clinical laboratory and vasopressin plasma levels will be measured at baseline and 12 hours postdrug administration. […] Patients meeting baseline eligibility criteria (CI≦2.6 L/min/m^2; PCWP≧16 mmHg) on successive readings at least 30 minutes apart during 2 hours prior to study drug administration will enter the treatment phase. […] Clinical laboratory and vasopressin plasma levels will be measured 12 hours postdose. […] Serum electrolytes, BUN, creatinine, serum osmolality will be measured at 4 and 12 hours posttreatment. […] For this study, hemodynamic efficacy parameters of PCWP, CI, SVR, and PVR will be evaluated in terms of their response profile. The response profile will be assessed in terms of peak change, and AUC delimited by the parameter change from baseline and measurement times. […] If measurements are missing at certain times, the AUC will be calculated using all other available observations. Dose response over the treatment groups will be assessed for selected measures. […]
# [4] = system: urinary output (V2 antagonism); assay: Urinary output and osmolality in conscious dogs; format: in vivo
# [5] = system: AVP-induced pressor response (V1A antagonism); assay: Antagonism of AVP-induced pressor response, oral, rats; format: in vivo
# [6] = Pharmacokinetics in healthy subjects (Phase 1); conditions: human
# [7] = system: dogs with heart failure induced by rapid right ventricular pacing; assay: Heart failure induced by rapid right ventricular pacing; format: in vivo; conditions: IV 0.1 mg/kg
# [8] = system: AVP-induced platelet aggregation (V1A antagonist activity); assay: AVP-induced platelet aggregation in Phase 1 subjects; format: in vivo, human; conditions: 20 mg/day orally or 2.5 mg IV
# dogs [9] = conditions: dog, in vivo, iv, 2 mg/kg
# [10] = system: aquaretic action (V2-receptor antagonism); assay: Aquaretic action in normal subjects; format: in vivo, human
# rabbits = assay: Teratogenicity in rabbits; format: in vivo
# dogs [11] = assay: 2- and 13-week oral toxicity studies in dogs; format: in vivo
# bacteria = assay: Mutagenicity in bacteria; format: cell-based
# human lymphocytes = assay: Clastogenicity in human lymphocytes in vitro; format: cell-based
# bone marrow of rats = assay: Clastogenicity in bone marrow of rats; format: in vivo
# subjects = assay: Safety in Phase 1 subjects; format: in vivo, human
# Text: Other adverse events included flushes, a sensation of cold extremities, abdominal complaints, abnormal stools, syncope, dizziness, palpitations, and postural hypotension. Three subjects who received YM087 and one subject who received placebo developed minor, reversible leukopenia. […] These observations were considered related to antagonism of V2 receptors and not a safety concern. Vital signs (blood pressure and heart rate) were unaffected by YM087.
# rats [12] = conditions: female rats, 13-week repeated oral dose
# rats [13] = conditions: rat, in vivo, iv, 2.5 mg/kg
# [14] = system: AVP-induced pressor response (V1A antagonism); assay: Antagonism of AVP-induced pressor response, IV, dogs; format: in vivo
# [15] = Oral pharmacokinetics in dog; format: in vivo
# Text: as §1
# rats [16] = assay: Reproductive performance / fertility studies in rats; format: in vivo
# rats [17] = assay: Teratogenicity in rats; format: in vivo
smiles,measurement,setting,value
"Cc1nc2c([nH]1)-c1ccccc1N(C(=O)c1ccc(NC(=O)c3ccccc3-c3ccccc3)cc1)CC2 [YM087, N-[4-(2-methyl-,4,5,6-tetrahydrornidazo[4,5-d][1]benzazepin-6-ylcarbonyl)phenyl]biphenyl-2-carboxamide hydrochloride]",time to peak concentrations,[1],0.5 h
same,AVP-induced dermal vasoconstriction,[2],Total inhibition
same,pulmonary capillary wedge pressure (PCWP),"[3]; IV 10, 20 or 40 mg, 85% receiving ACE inhibitor, FIG. 1",significant reductions
same,right atrial pressure (RAP),"[3]; IV 10, 20 or 40 mg, 85% receiving ACE inhibitor, FIG. 2",significant reduction
same,hemodynamic effect as add-on therapy to ACE inhibitors,[3]; add-on to normal treatment with ACE inhibitors,surprisingly favorable hemodynamic effect
same,urinary output,"[4]; conscious dogs, oral 0.03 to 0.3 mg/kg, dose-related",increased urinary output
same,urinary osmolality,"[4]; conscious dogs, oral 0.03 to 0.3 mg/kg, reduced from 1500",< 100 mOsm/kg H2O
same,effect on urinary sodium (Na) or potassium (K) excretion,[4]; unlike furosemide,little or no effect
same,dose that reduced the AVP response by 50% (ID50),[5],0.32 mg/kg
same,half-life,[6]; plasma,4 to 5 h
same,bioavailability,"[6]; plasma, oral",43 to 59%
same,Tmax,"[6]; plasma, po",~1 h
same,plasma levels on repeated dosing,"[6]; repeated BID oral doses, 60 mg",unexpectedly high plasma levels after the second dose
same,cardiac function,[7],significantly improved the depressed cardiac function
same,diuresis,[7],produced a water diuresis
same,AVP-induced platelet aggregation,[8],Inhibition
same,toxicity,dogs [9],No toxicity was observed
same,duration of increased urine production rate postdosing,[10]; IV 50 mg/day,≤ 6 h
same,duration of increased urine production rate postdosing,[10]; IV doses up to 250 μg/kg,up to 3 hours
same,tolerability of aquaretic effects,"[10]; normal subjects, 120 mg QD or 60 mg BID orally or 50 mg IV",too uncomfortable in normal subjects to be tolerable
same,dose at which aquaretic action with decrease in urine osmolarity starts,"[10]; normal subjects, IV",0.05 mg/kg
same,dose at which aquaretic action with decrease in urine osmolarity starts,"[10]; normal subjects, oral",15 mg
same,teratogenicity,rabbits,not teratogenic
same,peripheral blood counts,"dogs [11]; affected dogs, 13-week study","Decreased peripheral erythrocyte, leukocyte, and/or platelet counts"
same,reversibility of bone marrow and peripheral blood changes,dogs [11]; dogs,reversible
same,bone marrow histopathology,"dogs [11]; dogs, 2- and 13-week oral studies",Histopathologic changes in bone marrow were observed
same,mutagenicity,bacteria,not mutagenic
same,clastogenicity,human lymphocytes,not clastogenic
same,clastogenicity,bone marrow of rats,not clastogenic
same,overall safety,subjects; approximately 250 subjects treated,no major safety concerns were identified
same,urinary and plasma osmolarity,"subjects; at higher doses, with or without an increase in plasma sodium",urinary osmolarity decreased and plasma osmolarity increased
same,biochemical or hematological laboratory parameters,"subjects; human, in vivo",No drug-related trend was observed
same,vital signs (blood pressure and heart rate),"subjects; human, in vivo",unaffected
same,serious adverse event,"subjects; one patient with severe CHF, 80 mg/day for 4 days, relation to study drug could not be excluded",generalized tonic clonic seizure
same,"number of subjects who developed minor, reversible leukopenia",subjects; one subject on placebo also,Three
same,most frequent adverse events,subjects; regardless of treatment association,mild or moderate thirst and mild headache
same,uterine weights,rats [12],decreased at all doses
same,toxicity,rats [13],No toxicity was observed
same,"ID50, AVP-induced pressor response",[14],0.026 mg/kg
same,time to peak concentrations,[15],1 h
same,female fertility,"rats [16]; female rats, 100 mg/kg orally for 2 weeks prior to mating with untreated males","reduced fertility index, increased implantation loss, and decreased live fetuses"
same,reproductive performance of male rats,rats [16]; male rats,did not affect
same,teratogenicity,rats [17],not teratogenic
